Measured values taken from article PMC5548701, “Selective targeting of melanoma using N-(2-diethylaminoethyl) 4-[^18F]fluoroethoxy benzamide (4-[^18F]FEBZA): a novel PET imaging probe” (EJNMMI Research, 2017).
“And” between values parts separate entries of the source, which are not always exact repeats. Equal entries are not always repeated.

Experiments:
[1] = biodistribution in normal mice with no tumor implants; format: in vivo, C57BL/6 mice; details: 1 h
Procedure: (§1) The biodistribution studies were performed in mice bearing B16F1 (1 h n = 5; 2 h n = 6), C-32 (1 h n = 3; 2 h n = 3), and HT-29 (1 h n = 3; 2 h n = 3) tumor xenografts. The tumor-bearing mice were injected with ~40 μCi of 4-[^18F]FEBZA. A separate group of normal C57BL/6 mice with no tumor implants (1 h n = 3; 2 h n = 3) was also injected with ~40 μCi of 4-[^18F]FEBZA to study the distribution characteristics of 4-[^18F]FEBZA in the absence of tumors. At 1 h and 2 h post-injection, the mice were euthanized, and the tissues of interest were removed, rinsed with PBS, weighed, and counted for radioactivity contents using a γ-counter.

B16F1 tumor = assay: microPET imaging in mice bearing B16F1 tumor; format: in vivo
Procedure: In vivo imaging of 4-[^18F]FEBZA in mice bearing B16F1 (n = 2) and HT-29 (n = 1) tumor was performed using a P4 microPET™ scanner (Concorde Microsystems, Inc., Knoxville, TN). After administering ~100 μCi of 4-[^18F]FEBZA via tail-vein injection, whole body PET scans were acquired in list mode. The images were reconstructed using filtered back projection with attenuation correction. Regions Of Interest (ROIs) were drawn on select organs using the summed image from the entire scan acquisition session, and the data were analyzed using ASIPro software (Siemens Preclinical Solutions, Knoxville, TN). The time activity curves (TACs) were generated from the list mode data reconstructed into multiple 5-min frames.

[2] = system: C-32 amelanotic melanoma tumor xenografts; assay: biodistribution in mice bearing C-32 tumor xenografts; format: in vivo, athymic nu/nu mice; details: for Adrenals %IA/g tissue (mean ± SD) / Blood %IA/g tissue (mean ± SD) / Bone %IA/g tissue (mean ± SD) / Brain %IA/g tissue (mean ± SD) / Heart %IA/g tissue (mean ± SD) / Kidneys %IA/g tissue (mean ± SD) / Liver %IA/g tissue (mean ± SD) / Lung %IA/g tissue (mean ± SD) / Muscles %IA/g tissue (mean ± SD) / Pancreas %IA/g tissue (mean ± SD) / Sm. Intestine %IA/g tissue (mean ± SD) / Spleen %IA/g tissue (mean ± SD): C-32 tumor mice; for Tumor %IA/g tissue (mean ± SD): C-32 tumor
Procedure: (§2) B16F1 melanoma cells, HT-29 human colorectal adenocarcinoma cells, and C-32 amelanotic melanoma cells were purchased from the American Type Culture Collection (ATCC, Rockville, MD). B16F1 murine melanotic melanoma cells were maintained in Dulbecco’s modified Eagles medium supplemented with 10% fetal calf-serum, 2 mM L-glutamine, and 1 mM pyruvate. HT-29 and C-32 cells were maintained in RPMI supplemented with 10% fetal calf serum and 2 mM L-glutamine. C57BL/6 and athymic nu/nu mice were purchased from Charles River Laboratories (Charles River Laboratories, Boston, MA). All animal studies were performed using an IACUC-approved protocol, and the work was performed under the guidelines established by Wake Forest University. The cells were grown to confluency, harvested, washed with phosphate-buffered saline and then were suspended in a 1:1 mixture of phosphate-buffered saline and Matrigel (BD Life Sciences, San Jose, CA) at a concentration of 5 × 10^6 cells/mL. For subcutaneous tumor xenografts, […] in the right flank with 100 μL of a suspension of B16F1 cells, and female athymic nu/nu mice were injected in the right flank with 100 μL of HT-29 cells or C-32 cells.
as §1

[3] = system: HT-29 human colorectal adenocarcinoma tumor xenografts; assay: biodistribution in mice bearing HT-29 tumor xenografts; format: in vivo, athymic nu/nu mice; details: for tumor-to-brain tissue ratio: HT-29 group; for Adrenals %IA/g tissue (mean ± SD) / Blood %IA/g tissue (mean ± SD) / Bone %IA/g tissue (mean ± SD) / Brain %IA/g tissue (mean ± SD) / Heart %IA/g tissue (mean ± SD) / Kidneys %IA/g tissue (mean ± SD) / Liver %IA/g tissue (mean ± SD) / Lung %IA/g tissue (mean ± SD) / Muscles %IA/g tissue (mean ± SD) / Pancreas %IA/g tissue (mean ± SD) / Sm. Intestine %IA/g tissue (mean ± SD) / Spleen %IA/g tissue (mean ± SD): HT-29 tumor mice; for Tumor %IA/g tissue (mean ± SD): HT-29 tumor
Procedure: as §2, §1

[4] = system: B16F1 melanoma tumor xenografts; assay: biodistribution in mice bearing B16F1 tumor xenografts; format: in vivo, C57BL/6 mice; details: for tumor-to-brain tissue ratio: B16F1 group; for Adrenals %IA/g tissue (mean ± SD) / Blood %IA/g tissue (mean ± SD) / Bone %IA/g tissue (mean ± SD) / Brain %IA/g tissue (mean ± SD) / Heart %IA/g tissue (mean ± SD) / Kidneys %IA/g tissue (mean ± SD) / Liver %IA/g tissue (mean ± SD) / Lung %IA/g tissue (mean ± SD) / Muscles %IA/g tissue (mean ± SD) / Pancreas %IA/g tissue (mean ± SD) / Sm. Intestine %IA/g tissue (mean ± SD) / Spleen %IA/g tissue (mean ± SD): B16F1 tumor mice; for Tumor %IA/g tissue (mean ± SD): B16F1 tumor
Procedure: as §2, §1

## CCN(CC)CCNC(=O)c1ccc(OCC[18F])cc1 [4-[^18F]FEBZA, N-(2-diethylaminoethyl) 4-[^18F]fluoroethoxybenzamide]
[1]; mice with no tumor
  bone uptake: 3.23 ± 0.24 %IA/g
[1]; mice without implanted tumor
  blood uptake: 2.81 ± 0.31 %IA/g
  brain uptake: 2.46 ± 0.41 %IA/g
  liver uptake: 4.11 ± 0.63 %IA/g
  lungs uptake: 2.52 ± 0.47 %IA/g
  muscle uptake: 1.10 ± 0.13 %IA/g
B16F1 tumor; B16F1 melanoma tumor
  time post-injection by which tumor is clearly visible on microPET images: ≤ 10 min
B16F1 tumor; B16F1 tumor
  standardized uptake value (SUV) of tumor from microPET images: 1.53 ± 1.01
B16F1 tumor; by 47 min
  radioactivity level in B16F1 tumor from microPET time activity curve: over 3.5 %IA/g tumor
[2]; C-32 mice group, 2 h
  tumor-to-muscle ratio: 2.43 ± 0.14
[2]; 1 h post-injection
  Adrenals %IA/g tissue (mean ± SD): 1.26 ± 0.39 %IA/g tissue
  Blood %IA/g tissue (mean ± SD): 3.22 ± 0.64 %IA/g tissue
  Bone %IA/g tissue (mean ± SD): 3.47 ± 0.78 %IA/g tissue
  Brain %IA/g tissue (mean ± SD): 1.87 ± 0.21 %IA/g tissue
  Heart %IA/g tissue (mean ± SD): 2.52 ± 0.15 %IA/g tissue
  Kidneys %IA/g tissue (mean ± SD): 2.85 ± 0.37 %IA/g tissue
  Liver %IA/g tissue (mean ± SD): 3.11 ± 0.49 %IA/g tissue
  Lung %IA/g tissue (mean ± SD): 1.94 ± 0.67 %IA/g tissue
  Muscles %IA/g tissue (mean ± SD): 2.35 ± 1.06 %IA/g tissue
  Pancreas %IA/g tissue (mean ± SD): 2.49 ± 0.42 %IA/g tissue
  Sm. Intestine %IA/g tissue (mean ± SD): 2.23 ± 0.21 %IA/g tissue
  Spleen %IA/g tissue (mean ± SD): 1.96 ± 0.38 %IA/g tissue
  Tumor %IA/g tissue (mean ± SD): 3.91 ± 0.23 %IA/g tissue
[2]; 2 h post-injection
  Adrenals %IA/g tissue (mean ± SD): 0.77 ± 0.18 %IA/g tissue
  Blood %IA/g tissue (mean ± SD): 2.40 ± 0.30 %IA/g tissue
  Bone %IA/g tissue (mean ± SD): 5.09 ± 0.72 %IA/g tissue
  Brain %IA/g tissue (mean ± SD): 1.36 ± 0.17 %IA/g tissue
  Heart %IA/g tissue (mean ± SD): 1.75 ± 0.35 %IA/g tissue
  Kidneys %IA/g tissue (mean ± SD): 1.84 ± 0.12 %IA/g tissue
  Liver %IA/g tissue (mean ± SD): 1.99 ± 0.12 %IA/g tissue
  Lung %IA/g tissue (mean ± SD): 1.33 ± 0.35 %IA/g tissue
  Muscles %IA/g tissue (mean ± SD): 1.05 ± 0.14 %IA/g tissue
  Pancreas %IA/g tissue (mean ± SD): 1.40 ± 0.10 %IA/g tissue
  Sm. Intestine %IA/g tissue (mean ± SD): 1.33 ± 0.06 %IA/g tissue
  Spleen %IA/g tissue (mean ± SD): 1.22 ± 0.08 %IA/g tissue
  Tumor %IA/g tissue (mean ± SD): 2.53 ± 0.19 %IA/g tissue
[3]; 1 h
  tumor-to-brain tissue ratio: 2.19 ± 0.04
[3]; 2 h
  tumor-to-brain tissue ratio: 2.04 ± 0.19
[3]; HT-29 mice group, 2 h
  tumor-to-muscle ratio: 2.21 ± 0.17
[3]; 1 h post-injection
  Adrenals %IA/g tissue (mean ± SD): 1.07 ± 0.08 %IA/g tissue
  Blood %IA/g tissue (mean ± SD): 2.80 ± 0.26 %IA/g tissue
  Bone %IA/g tissue (mean ± SD): 3.83 ± 0.39 %IA/g tissue
  Brain %IA/g tissue (mean ± SD): 1.68 ± 0.18 %IA/g tissue
  Heart %IA/g tissue (mean ± SD): 2.52 ± 0.12 %IA/g tissue
  Kidneys %IA/g tissue (mean ± SD): 2.91 ± 0.24 %IA/g tissue
  Liver %IA/g tissue (mean ± SD): 4.84 ± 0.95 %IA/g tissue
  Lung %IA/g tissue (mean ± SD): 2.19 ± 0.33 %IA/g tissue
  Muscles %IA/g tissue (mean ± SD): 1.61 ± 0.28 %IA/g tissue
  Pancreas %IA/g tissue (mean ± SD): 2.41 ± 0.26 %IA/g tissue
  Sm. Intestine %IA/g tissue (mean ± SD): 1.98 ± 0.62 %IA/g tissue
  Spleen %IA/g tissue (mean ± SD): 2.11 ± 0.25 %IA/g tissue
  Tumor %IA/g tissue (mean ± SD): 3.68 ± 0.47 %IA/g tissue
[3]; 2 h post-injection
  Adrenals %IA/g tissue (mean ± SD): 0.91 ± 0.19 %IA/g tissue
  Blood %IA/g tissue (mean ± SD): 2.29 ± 0.23 %IA/g tissue
  Bone %IA/g tissue (mean ± SD): 5.71 ± 1.11 %IA/g tissue
  Brain %IA/g tissue (mean ± SD): 1.52 ± 0.28 %IA/g tissue
  Heart %IA/g tissue (mean ± SD): 2.19 ± 0.37 %IA/g tissue
  Kidneys %IA/g tissue (mean ± SD): 2.08 ± 0.29 %IA/g tissue
  Liver %IA/g tissue (mean ± SD): 2.50 ± 0.29 %IA/g tissue
  Lung %IA/g tissue (mean ± SD): 1.63 ± 0.16 %IA/g tissue
  Muscles %IA/g tissue (mean ± SD): 1.40 ± 0.24 %IA/g tissue
  Pancreas %IA/g tissue (mean ± SD): 1.56 ± 0.18 %IA/g tissue
  Sm. Intestine %IA/g tissue (mean ± SD): 1.42 ± 0.10 %IA/g tissue
  Spleen %IA/g tissue (mean ± SD): 1.51 ± 0.12 %IA/g tissue
  Tumor %IA/g tissue (mean ± SD): 3.07 ± 0.36 %IA/g tissue
[4]; 1 h
  tumor-to-brain tissue ratio: 3.55 ± 0.80
[4]; 2 h
  tumor-to-brain tissue ratio: 3.45 ± 0.81
[4]; B16F1 mice group, 2 h
  tumor-to-muscle ratio: 6.64 ± 1.11
[4]; 1 h post-injection
  Adrenals %IA/g tissue (mean ± SD): 1.10 ± 0.36 %IA/g tissue
  Blood %IA/g tissue (mean ± SD): 3.06 ± 0.52 %IA/g tissue
  Bone %IA/g tissue (mean ± SD): 3.78 ± 0.45 %IA/g tissue
  Brain %IA/g tissue (mean ± SD): 2.55 ± 0.61 %IA/g tissue
  Heart %IA/g tissue (mean ± SD): 2.82 ± 0.25 %IA/g tissue
  Kidneys %IA/g tissue (mean ± SD): 3.10 ± 0.28 %IA/g tissue
  Liver %IA/g tissue (mean ± SD): 3.25 ± 0.34 %IA/g tissue
  Lung %IA/g tissue (mean ± SD): 2.12 ± 0.17 %IA/g tissue
  Muscles %IA/g tissue (mean ± SD): 1.51 ± 0.21 %IA/g tissue
  Pancreas %IA/g tissue (mean ± SD): 2.48 ± 0.35 %IA/g tissue
  Sm. Intestine %IA/g tissue (mean ± SD): 2.48 ± 0.35 %IA/g tissue and 2.49 ± 0.25 %IA/g tissue
  Spleen %IA/g tissue (mean ± SD): 2.24 ± 0.36 %IA/g tissue
  Tumor %IA/g tissue (mean ± SD): 8.66 ± 1.02 %IA/g tissue
[4]; 2 h post-injection
  Adrenals %IA/g tissue (mean ± SD): 0.88 ± 0.06 %IA/g tissue
  Blood %IA/g tissue (mean ± SD): 2.51 ± 0.93 %IA/g tissue
  Bone %IA/g tissue (mean ± SD): 5.45 ± 0.98 %IA/g tissue
  Brain %IA/g tissue (mean ± SD): 2.25 ± 0.50 %IA/g tissue
  Heart %IA/g tissue (mean ± SD): 2.12 ± 0.58 %IA/g tissue
  Kidneys %IA/g tissue (mean ± SD): 2.20 ± 0.38 %IA/g tissue
  Liver %IA/g tissue (mean ± SD): 2.28 ± 0.49 %IA/g tissue
  Lung %IA/g tissue (mean ± SD): 1.49 ± 0.49 %IA/g tissue
  Muscles %IA/g tissue (mean ± SD): 1.14 ± 0.21 %IA/g tissue
  Pancreas %IA/g tissue (mean ± SD): 1.73 ± 0.14 %IA/g tissue
  Sm. Intestine %IA/g tissue (mean ± SD): 1.60 ± 0.31 %IA/g tissue
  Spleen %IA/g tissue (mean ± SD): 1.58 ± 0.18 %IA/g tissue
  Tumor %IA/g tissue (mean ± SD): 7.47 ± 1.34 %IA/g tissue
